From patent publication US7304186B2, “Synthetic method and novel chemical compounds” (Charterhouse Therapeutics Ltd., priority 2002, dated 2007)
Read-outs that look alike come from different tables or passages of the source.

Legend:
Monkey kidney 37RC cells = assay type: cell-based
Protocol: (§1) Monkey kidney 37RC cells were grown at 37° C. under the conditions described above for human lymphoblastoid Jurkat T cells. The parainfluenza Sendai virus (SV) was grown in the allantoic cavity of 10 day-old embryonated eggs. Viral titre was expressed in haemagglutinating units (HAU) per ml; […]. Virus yield at 24 hours after infection was determined in the supernatant of infected cells by HAU titration.
(§2) The ID50 (the 50% inhibitory dose/concentration) value at 24 hours and the TD100 (the dose or concentration at which a tested compound is 100% toxic to uninfected cells, determined visually by microscopy) for both (−)-Δ^12,14-15-deoxy-PG-J2 and for compound CTC-150 were measured and the following results were obtained.

NF-κB = assay: EMSA of NF-κB DNA-binding activity in TPA-stimulated Jurkat T cells; assay type: cell-based, Human; settings: for NF-κB inhibition (in words): TPA-stimulated, EMSA
Protocol: (§3) Human lymphoblastoid Jurkat T cells were grown at 37° C. in a 5% CO2 atmosphere in RPM1 1640 medium (GIBCO BRL, Gaithersburg, Md., United States of America) supplemented with 10% fetal calf serum (FCS, Hyclone Europe Ltd, United Kingdom), 2 mM glutamine and antibiotics according to the method described by A. Rossi et al.^48 The test compound was stored as a 100% ethanolic stock solution (100 mM) or in dimethylsulfoxide (100 mM) and diluted to the appropriate concentration in culture medium at the time of use. Cells were treated with different concentrations of test compound for 1 hour and then stimulated with 12-O-tetradecanoylphorbol-13-acetate (TPA, 25 ng/ml), which is a strong inducer of NF-κB. Control cells received an equal amount of control diluent. After 3 hours, whole-cell extracts were prepared and subjected to analysis of DNA-binding activity by EMSA (Electrophoretic Mobility Shift Assay) for detection of HSF or NF-κB activation, according to the method described by A. Rossi et al.^48
(§4) Specificity of protein-DNA complexes was verified by immunoreactivity with polyclonal antibodies specific for p65 (Rel A) or for HSF-1, for NF-κB and HSF respectively. Quantitative evaluation of NF-κB- and HSF-DNA complex formation was determined by Molecular Dynamics PhosphorImager (MDP) analysis and was expressed in arbitrary units, as described by A. Rossi et al.^49 The results for (−)-Δ^12,14-15-deoxy-PG-J2 are shown in FIG. 1.

[1] = test system: parainfluenza Sendai virus (SV); assay: Sendai virus replication in 37RC cells, virus yield by HAU titration; assay type: cell-based; settings: for IC50: read-out: ID50 (50% inhibitory dose/concentration)
Protocol: as §1, §2

HSF = assay: EMSA of HSF DNA-binding activity in TPA-stimulated Jurkat T cells; assay type: cell-based, Human; settings: 1 hour pre-treatment, TPA 25 ng/ml, extracts after 3 hours
Protocol: as §3, with “After 3 hours, whole-cell extracts were prepared and subjected to analysis of DNA-binding activity by EMSA (Electrophoretic Mobility Shift Assay) for detection of HSF or NF-κB activation, according to the method described by A. Rossi et al.^48” left out
as §4

SMILES | TD100 (concentration at which compound is 100% toxic to uninfected cells) (Monkey kidney 37RC cells; uninfected 37RC cells, visually by microscopy) | NF-κB inhibition (in words) (NF-κB) | inhibition of Sendai virus replication (in words) ([1]; 37RC cells, virus yield at 24 hours) | IC50 ([1]; virus yield at 24 hours after infection, 37RC cells, 5 HAU/10^5 cells) | TD100 (concentration at which compound is 100% toxic to uninfected cells) (Monkey kidney 37RC cells; monkey) | concentration required to give an HSF activation to 200% of its original level (HSF) | IC50 (NF-κB; Homo sapiens, 1 hour pre-treatment, TPA 25 ng/ml, extracts after 3 hours, read-out: concentration required to give an NF-κB inhibition to 50% of its original level (IC50)) | IC50 ([1]; Respirovirus muris, 24 h) | antiviral activity relative to (−)-Δ^12,14-15-deoxy-PG-J2 (times more active) ([1]; ratio of ID50 values, Sendai virus in 37RC cells)
CCCCC/C=C/C=C1/C(=O)C=CC1C/C=C\CCCC(=O)O (stereo not drawn) [(−)-Δ^12,14-15-deoxy-PG-J2, reference compound] | 50 µM | potent inhibitor of NF-κB | potent inhibitor of Sendai virus replication | 3000 nM |  |  |  |  | 
CC1C=CC(=O)/C1=C/c1ccccc1 (stereo not shown) [CTC-150, 4-methyl-5-[1-phenyl-meth-(E)-ylidene]-cyclopent-2-enone] |  | potent inhibitor of NF-κB |  |  | >50 µM | 0.02 µM | 7000 nM | 700 nM | over 4
